From PMC7155171, “Probing the Open Global Health Chemical Diversity Library for Multistage-Active Starting Points for Next-Generation Antimalarials” (ACS Infectious Diseases, 2020)
pIC50: −log10 of the molar value. Like-named read-outs stand apart in the source and are kept apart here.

Assays:
[1] = tested on: P. falciparum Dd2 (PfLuc) line expressing firefly luciferase, asexual blood stage; assay: microbe, parasite or virus in culture; format: cell-based, Plasmodium falciparum; conditions: Plasmodium falciparum; for IC50: DD2, read-out: CDD P. falciparum Luciferase ABS 11-pt Reconfirmation Dose Response (48hr): IC50 (μM)
P. falciparum Dd2 = assay: SYBR green I asexual blood stage proliferation assay (96 h); format: cell-based, Plasmodium falciparum; conditions: Plasmodium falciparum, DD2, 11-pt dose response, 96hr
[2] = DD2, 8-pt dose response, 96hr, read-out: CDD P. falciparum Luciferase ABS 8-pt Reconfirmation Dose Response (96hr): IC50
[3] = DD2, 8-pt dose response, 96hr, read-out: CDD P. falciparum Luciferase ABS 8-pt Reconfirmation Dose Response (96hr): Maximum inhibition (%)
[4] = DD2, 11-pt dose response, 48hr, read-out: CDD P. falciparum Luciferase ABS 11-pt Reconfirmation Dose Response (48hr): Maximum inhibition (%)
[5] = DD2, 11-pt dose response, 96hr, read-out: CDD P. falciparum Luciferase ABS 11-pt Reconfirmation Dose Response (96hr): IC50
[6] = DD2, 11-pt dose response, 96hr, read-out: CDD P. falciparum Luciferase ABS 11-pt Reconfirmation Dose Response (96hr): Maximum inhibition (%)
[7] = Sybr Green I, read-out: CDD P. falciparum Sybr Green I ABS 11-pt Reconfirmation Dose Response (96hr): IC50
[8] = Sybr Green I, read-out: CDD P. falciparum Sybr Green I ABS 11-pt Reconfirmation Dose Response (96hr): Maximum inhibition (%)
[9] = DD2, read-out: P. falciparum Luciferase ABS 11-pt Reconfirmation Dose Response (48hr): IC50, 11-pt dose response, 48hr
[10] = DD2, 8-pt dose response, 96hr, read-out: P. falciparum Luciferase ABS 8-pt Reconfirmation Dose Response (96hr): IC50
[11] = DD2, 8-pt dose response, 96hr, read-out: P. falciparum Luciferase ABS 8-pt Reconfirmation Dose Response (96hr): Maximum inhibition (%)
[12] = DD2, 11-pt dose response, 48hr, read-out: P. falciparum Luciferase ABS 11-pt Reconfirmation Dose Response (48hr): Maximum inhibition (%)
[13] = DD2, 11-pt dose response, 96hr, read-out: P. falciparum Luciferase ABS 11-pt Reconfirmation Dose Response (96hr): IC50
[14] = DD2, 11-pt dose response, 96hr, read-out: P. falciparum Luciferase ABS 11-pt Reconfirmation Dose Response (96hr): Maximum inhibition (%)
[15] = read-out: P. falciparum Sybr Green I ABS 11-pt Reconfirmation Dose Response (96hr): IC50
[16] = read-out: P. falciparum Sybr Green I ABS 11-pt Reconfirmation Dose Response (96hr): Maximum inhibition (%)

SMILES | IC50 ([1]; 11-pt dose response, 48hr) [µM] | pIC50 [1, 2] | Emax [1, 3] [%] | Emax [1, 4] [%] | pIC50 [1, 5] | Emax [1, 6] [%] | pIC50 (P. falciparum Dd2; [7]) | Emax (P. falciparum Dd2; [8]) [%] | pIC50 [1, 9] | pIC50 [1, 10] | Emax [1, 11] [%] | Emax [1, 12] [%] | pIC50 [1, 13] | Emax [1, 14] [%] | pIC50 (P. falciparum Dd2; [15]) | Emax (P. falciparum Dd2; [16]) [%]
Cc1nn(C)cc1C1=NS(=O)(=O)N(C)C(C(=O)Nc2ccc(Cl)cc2)=C1 [DDD01058696] | 1.23 | 6.47 | 96.1 | 100 | 6.29 | 101 | 6.15 | 98.7 |  |  |  |  |  |  |  | 
Cn1ccnc1CN(Cc1ccccn1)Cc1ccccc1Cl [DDD01058741] | 2.68 | 6.23 | 93.9 | 94.3 | 6.23 | 100 | 5.21 | 83.5 |  |  |  |  |  |  |  | 
Cc1ncc(CN(Cc2ccccn2)Cc2ccccc2Cl)n1C [DDD01058742] | 3.44 | 6.29 | 86.1 | 74 | 6.00 | 94.5 | 5.81 | 67.5 |  |  |  |  |  |  |  | 
Fc1ccc(F)c(CN2CCC(c3cc4ncccc4cn3)CC2)c1 [DDD01058752] | 1.07 | 6.39 | 96.2 | 94.1 | 6.01 | 98 | 6.07 | 90.5 |  |  |  |  |  |  |  | 
Fc1cccc(CN2CCC(c3cc4ncccc4cn3)CC2)c1F [DDD01058754] | 1.06 | 6.11 | 94.4 | 95.6 | 6.24 | 99.9 | 6.51 | 86.9 |  |  |  |  |  |  |  | 
Clc1cccc(N[C@H]2CCCN[C@H]2Cc2ccccc2)c1 [DDD01058816] | 1.92 | 5.97 | 95.6 | 100 | 6.19 | 101 | 5.45 | 94.8 |  |  |  |  |  |  |  | 
Cc1cc(CN2CCc3nc(-c4ccncc4)nc(O)c3CC2)c(C)s1 [DDD01058881] |  |  |  |  |  |  |  |  | 5.03 | 5.76 | 88.5 | 79 | 5.53 | 93.4 | 5.20 | 78.2
FC(F)(F)c1cc(C2CCNCC2)nc(-c2ccsc2)n1 [DDD01058935] | > 12.5 | 6.17 |  | 64.4 | < 5.86 | 92.1 | 5.36 | 60.5 |  |  |  |  |  |  |  | 
CC(C)(C)C(=O)N1C[C@H](c2ccsc2)[C@H]2CN(C3CCCCC3)CC[C@H]21 [DDD01058940] | > 12.5 | 6.08 | 83.6 | 59.1 | 5.69 | 90.2 | 5.06 | 74.2 |  |  |  |  |  |  |  | 
Cc1ccc(C2(CN3CCN(Cc4cnc(C)n4C)CC3)CC2)cc1 [DDD01059041] | 1.95 | 6.60 |  | 77.8 | 6.27 |  | 5.88 | 88.5 |  |  |  |  |  |  |  | 
CN(C)CCN(C)C(=O)Cn1cccc2cc(-c3ccc(F)cc3)nc1-2 [DDD01059044] | 1.87 | 6.27 | 95.7 | 95.1 | 5.72 | 98.3 | 5.93 | 99.6 |  |  |  |  |  |  |  | 
Cc1cccc(Nc2cccc(C3CCCN(Cc4ncc[nH]4)C3)n2)n1 (stereo not drawn) [DDD01059475] | 1.69 | 5.97 | 95.8 | 98.9 | < 5.86 | 100 | 6.02 | 92.2 |  |  |  |  |  |  |  | 
CC(C)CNC(=O)C1(Cc2ccccc2-c2cccs2)CCNC1 (stereo not drawn) [DDD01059689] | > 12.5 | 6.04 | 73.8 | 49.4 | < 5.86 | 87.3 | < 4.90 | 45.7 |  |  |  |  |  |  |  | 
N[C@@H]1CCC[C@@H](Oc2ccc(F)cc2Oc2ccccc2)[C@@H]1O [DDD01059731] | > 1.4 | 6.16 | 93.5 | 89.8 | < 5.86 | 98.4 | 5.30 | 86.9 |  |  |  |  |  |  |  | 
Cc1ccc(Oc2cc(F)ccc2O[C@@H]2CCC[C@@H](N)[C@H]2O)cc1 [DDD01059749] | 2.7 | 6.27 | 92.7 | 98 | < 5.86 | 100 | 5.64 | 95.9 |  |  |  |  |  |  |  | 
Cc1cccnc1CN1CC[C@H](Oc2cccc(F)c2)[C@@](C)(O)C1 [DDD01060871] | 1.92 | 6.04 | 90.5 | 93.1 | 6.26 | 100 | 5.59 | 82.8 |  |  |  |  |  |  |  | 
CC1(C)CC(N(Cc2cccnc2)Cc2cccc(F)c2)CC(C)(C)N1 [DDD01060979] | 3.32 | 6.52 | 88 |  | < 5.86 | 98.4 | 5.07 | 79.9 |  |  |  |  |  |  |  | 
Cc1ccsc1CN(Cc1cccnc1)C1CC(C)(C)NC(C)(C)C1 [DDD01060982] | 4.19 | 5.98 | 88.1 | 61.9 | 5.80 | 95.6 | < 5.38 | 70.5 |  |  |  |  |  |  |  | 
Cc1ccsc1CN(CCCN(C)C)Cc1ccccn1 [DDD01060996] | > 12.5 | 6.26 | 79.6 | 51.6 | 5.45 | 82.3 | < 4.90 | 46.2 |  |  |  |  |  |  |  | 
COc1ccc(C(C)NCc2ccsc2)cc1Cn1cccn1 (stereo not drawn) [DDD01061827] | > 12.5 | 6.10 | 81.9 | 38.8 | 5.75 | 68.9 | < 5.38 | 58.7 |  |  |  |  |  |  |  | 
Cc1ccc(CNC(C)c2cc(F)ccc2N2CCN(C)CC2)o1 (stereo not drawn) [DDD01061881] | 3.93 | 6.39 | 90.7 | 87.5 | 5.67 | 97.7 | 5.62 |  |  |  |  |  |  |  |  | 
Cc1cnn(CCNCc2nccn2Cc2ccccc2)c1 [DDD01062085] | 10.4 | 6.28 |  | 75 | 5.91 | 95.2 | < 4.90 | 51.3 |  |  |  |  |  |  |  | 
CN1CCC(N(Cc2ccco2)S(=O)(=O)c2ccc(Br)cc2Cl)CC1 [DDD01063208] | > 12.5 | 6.24 | 76.6 | 21.3 | 5.66 | 81.7 | 4.97 | 54.5 |  |  |  |  |  |  |  | 
Cc1ccc(CN(c2cc(C)nc3nc(C(F)(F)F)nn23)C2CC2)cc1 [DDD01063654] | 2.34 | 6.43 |  | 89.4 | 6.35 | 99.7 | 5.68 |  |  |  |  |  |  |  |  | 
CN(Cc1cc(F)cc2cccnc12)CC1CCN(CCO)CC1 [DDD01063806] | 3.63 | 6.04 | 93.1 | 96.1 | 5.68 | 100 | 5.95 | 93.2 |  |  |  |  |  |  |  | 
CN(Cc1cc(Cl)cc2cccnc12)CC1CCN(CCO)CC1 [DDD01063807] | 2.2 | 6.44 | 94.1 | 97.5 | 5.85 | 100 | 6.23 | 95.8 |  |  |  |  |  |  |  | 
c1cc(N2CCC(CN3CCOCC3)CC2)c2sccc2n1 [DDD01064806] |  |  |  |  |  |  |  |  | 5.86 | 5.84 | 94.6 | 99.7 | 5.95 | 100 | 5.94 | 100
CNC(=O)CCN(C)CC1(c2ccc(Br)cc2)CC1 [DDD01064880] | 5.21 | 6.27 |  | 64.4 | 5.33 | 88.9 | 5.18 | 73.3 |  |  |  |  |  |  |  | 
Cc1cc(C)c(CNCC(O)c2ccc(F)c(F)c2)c(C)c1 (stereo not drawn) [DDD01065539] | 0.316 | 6.82 | 96.6 | 97.4 | 6.84 | 100 | 6.51 | 99.5 |  |  |  |  |  |  |  | 
CC(NCCc1nccn1Cc1ccccc1)c1ccsc1 (stereo not drawn) [DDD01065612] | 4.05 | 5.96 | 87.3 | 68.1 | 6.18 | 88.3 | 6.02 | 77.4 |  |  |  |  |  |  |  | 
